Results on eleven compounds are retold here after patent US10905739B2, “Peptidomimetic macrocycles and formulations thereof” (AILERON THERAPEUTICS, INC., priority 2014, dated 2021).

Molecules are shown by their SMILES. In brackets after ≈: the same amount, converted by molar mass. Read-outs that look alike come from different tables or passages of the source. Bridge positions count the residues as written; N and C are the ends. Square brackets hold non-standard residues; d marks the D form. Peptide text beside a SMILES is read from it. dPhe(4-CF3) = N[C@H](Cc1ccc(C(F)(F)F)cc1)C(=O)O; Phe(4-F) = N[C@@H](Cc1ccc(F)cc1)C(=O)O; R8 = C=CCCCCCC[C@@](C)(N)C(=O)O; S8 = C=CCCCCCC[C@](C)(N)C(=O)O; R5 = C=CCCC[C@@](C)(N)C(=O)O; hLeu = CC(C)CC[C@H](N)C(=O)O; S5 = C=CCCC[C@](C)(N)C(=O)O; Nle = CCCC[C@H](N)C(=O)O; Aib = CC(C)(N)C(=O)O Bounds are passed on as bounds.

A word on the IC50: it is the concentration that inhibits the measured activity by half. Higher therefore signals weaker potency in that assay. As usually defined, the EC50 is the concentration that produces a half-maximal response. Broadly, the solubility is how much of the substance goes into solution per volume.

One series concerns the target MDM2 (Homo sapiens, UniProt Q00987). Put plainly: MDM2 binding IC50/Ki (in vitro displacement, fluorescence polarization). On the technique in general: In fluorescence polarisation assays a small probe gives low polarisation when free and higher when bound to something large.
Another series concerns SJSA-1 cells. Put plainly: SJSA-1 sarcoma cell killing / cell viability. Format: cell-based. Particulars: 10% serum.
Series [1] in a line: Aqueous solubility (turbidity of solution). In kind it is physicochemical. The protocol: In some embodiments, the peptidomimetic macrocycle or pharmaceutically acceptable salt thereof is not precipitated in the formulation. In some embodiments, an aqueous solubility of the peptidomimetic macrocycle is determined by evaluating the turbidity of a solution comprising the peptidomimetic macrocycle. In some embodiments, the peptidomimetic macrocycle or pharmaceutically acceptable salt thereof has an amphipathicity that falls in a range that is optimal for cell permeability.
In some embodiments, a peptidomimetic macrocycle with enhanced cell penetrability can be prepared based on solubility of the polypeptide, for example if the prepared peptidomimetic macrocycle is determined to be soluble based on visual examination of the turbidity of a solution of the polypeptide.

Series [2] concerns Influenza A Virus H1N1 California/07/2009. To be noted: Virus California/07/2009.
The next series addresses MCL-1 (Homo sapiens, UniProt Q07820). The experiment in a line: biochemical. The source says: To assess the binding and affinity of compounds that antagonize the interaction between a peptide and an acceptor protein, a fluorescence polarization assay (FPA) utilizing a fluoresceinated peptidomimetic macrocycle derived from a peptidomimetic precursor sequence is used, for example. The FPA technique measures the molecular orientation and mobility using polarized light and fluorescent tracer. […] A compound that antagonizes the interaction between the fluoresceinated peptidomimetic macrocycle and an acceptor protein will be detected in a competitive binding FPA experiment.
Antagonist binding activity is measured, for example, by fluorescence polarization on a luminescence spectrophotometer (e.g. Perkin-Elmer LS50B). Kd values can be determined by nonlinear regression analysis using, for example, Graphpad Prism software (GraphPad Software, Inc., San Diego, Calif.).

For another series, the target named is BCL-XL (Homo sapiens, UniProt Q07817). The experiment in a line: BCL-XL binding IC50. The source says: In one aspect, the present invention provides novel peptidomimetic macrocycles that are useful in competitive binding assays to identify agents which bind to the natural ligand(s) of the proteins or peptides upon which the peptidomimetic macrocycles are modeled. For example, in the BH3/BCL-XL anti-apoptotic system labeled peptidomimetic macrocycles based on BH3 can be used in a BCL-XL binding assay along with small molecules that competitively bind to BCL-XL. Competitive binding studies allow for rapid in vitro evaluation and determination of drug candidates specific for the BH3/BCL-XL system. The invention further provides for the generation of antibodies against the peptidomimetic macrocycles. In some embodiments, these antibodies specifically bind both the peptidomimetic macrocycle and the BH3 peptidomimetic precursors upon which the peptidomimetic macrocycles are derived. Such antibodies, for example, disrupt the BH3/BCL-XL systems, respectively.
BCL-XL, sequence (Q07817 whole entry): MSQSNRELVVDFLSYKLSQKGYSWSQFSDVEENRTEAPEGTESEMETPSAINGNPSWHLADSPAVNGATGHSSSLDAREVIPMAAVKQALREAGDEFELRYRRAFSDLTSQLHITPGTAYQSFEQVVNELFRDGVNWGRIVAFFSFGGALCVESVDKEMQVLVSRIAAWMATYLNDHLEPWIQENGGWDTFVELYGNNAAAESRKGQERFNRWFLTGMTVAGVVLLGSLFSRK

For another series, the system named is Raji Cell. To be noted: read-out: Raji Cell Viability EC50; 5% serum, 48 hr. The protocol: The efficacy of certain peptidomimetic macrocycles is determined, for example, in cell-based killing assays using a variety of tumorigenic and non-tumorigenic cell lines and primary cells derived from human or mouse cell populations. […] Several standard assays that measure cell viability are commercially available and are optionally used to assess the efficacy of the peptidomimetic macrocycles. In addition, assays that measure Annexin V and caspase activation are optionally used to assess whether the peptidomimetic macrocycles kill cells by activating the apoptotic machinery. For example, the Cell Titer-glo assay is used which determines cell viability as a function of intracellular ATP concentration.

MCL-1, sequence (Q07820 whole entry): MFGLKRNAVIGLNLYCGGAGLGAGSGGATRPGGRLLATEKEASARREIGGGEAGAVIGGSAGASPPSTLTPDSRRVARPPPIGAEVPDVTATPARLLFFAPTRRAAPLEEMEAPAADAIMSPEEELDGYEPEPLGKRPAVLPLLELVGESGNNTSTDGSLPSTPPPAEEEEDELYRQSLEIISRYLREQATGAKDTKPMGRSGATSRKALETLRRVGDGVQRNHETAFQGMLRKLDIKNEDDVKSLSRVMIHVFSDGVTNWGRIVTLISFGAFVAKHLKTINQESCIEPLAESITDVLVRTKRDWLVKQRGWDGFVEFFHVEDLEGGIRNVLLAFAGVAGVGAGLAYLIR
MDM2, sequence (Q00987 whole entry): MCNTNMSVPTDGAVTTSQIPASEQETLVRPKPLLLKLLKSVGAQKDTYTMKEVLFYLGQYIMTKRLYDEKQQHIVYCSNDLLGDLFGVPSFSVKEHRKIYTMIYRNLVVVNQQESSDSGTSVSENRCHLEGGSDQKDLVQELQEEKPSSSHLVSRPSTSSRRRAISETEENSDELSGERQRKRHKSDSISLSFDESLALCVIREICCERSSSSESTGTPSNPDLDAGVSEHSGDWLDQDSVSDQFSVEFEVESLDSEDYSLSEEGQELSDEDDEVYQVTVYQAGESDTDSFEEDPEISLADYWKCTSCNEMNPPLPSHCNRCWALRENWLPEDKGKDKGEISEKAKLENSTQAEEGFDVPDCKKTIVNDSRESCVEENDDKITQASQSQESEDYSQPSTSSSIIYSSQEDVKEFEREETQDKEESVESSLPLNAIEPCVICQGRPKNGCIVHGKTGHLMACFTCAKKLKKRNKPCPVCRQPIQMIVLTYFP

In the case of `CCCC[C@H](NC(=O)[C@H](C)NC(=O)[C@H](C)NC(=O)[C@]1(C)CCCC=CCCCCCC[C@@](C)(NC(=O)[C@H](Cc2ccccc2)NC(=O)[C@@H](NC(=O)[C@H](CC(C)C)NC(C)=O)[C@@H](C)O)C(=O)N[C@@H](C)C(=O)N[C@@H](Cc2ccc(O)cc2)C(=O)N[C@@H](Cc2c[nH]c3ccccc23)C(=O)N[C@@H](C)C(=O)N[C@@H](CCC(N)=O)C(=O)N[C@@H](CC(C)C)C(=O)N1)C(=O)N[C@@H](C)C(N)=O` [SP68], the IC50 on MDM2 is 29 nM. A half-maximal response with SJSA-1 cells (72 hr (Table 1d)) (EC50) required 1120 nM. Besides, in series [1] (aqueous solution, read-out: Solubility), the solubility was determined as 3000 µg/mL (≈ 1690 µM).
Turning to `CC(=O)N[C@@H](CC(C)C)C(=O)N[C@H](C(=O)N[C@@H](Cc1ccccc1)C(=O)NC1(C)CCCCCCC=CCCCC(C)(C(=O)N[C@@H](C)C(=O)N[C@@H](C)C(=O)N[C@@H](C)C(=O)N[C@@H](C)C(=O)N[C@@H](C)C(=O)N[C@@H](C)C(=O)N[C@H](C)C(N)=O)NC(=O)[C@H](CC(C)C)NC(=O)[C@H](CCC(N)=O)NC(=O)[C@H](C)NC(=O)[C@H](Cc2c[nH]c3ccccc23)NC(=O)[C@H](Cc2ccc(O)cc2)NC(=O)[C@H](C)NC1=O)[C@@H](C)O` (stereo partly drawn) [SP317], the solubility in series [1] (read-out: Solubility) turned out to be 5000 µg/mL (≈ 2570 µM).
Consider `CC(=O)N[C@@H](CC(C)C)C(=O)N[C@H](C(=O)N[C@@H](Cc1ccccc1)C(=O)N[C@]1(C)CCCCCCC=CCCC[C@@](C)(C(=O)N[C@@H](C)C(N)=O)NC(=O)[C@H](CC(C)C)NC(=O)[C@H](CCC(N)=O)NC(=O)[C@H](C)NC(=O)[C@H](Cc2c[nH]c3ccccc23)NC(=O)[C@H](Cc2ccc(O)cc2)NC(=O)[C@H](C)NC1=O)[C@@H](C)O` [SP590, Ac-LTF$r8AYWAQL$A-NH2] (Ac-LTF[R8]AYWAQL[S5]A-NH2; staple 4-11), for which the EC50 in the series with SJSA-1 cells (72 hr (Table 1d)) is 6000 nM. In series [1], this compound had a solubility of no more than 1000 µg/mL.
For the compound `CC(=O)N[C@@H](C(=O)N[C@H](C)C(=O)N[C@H](Cc1c[nH]c2ccccc12)C(=O)N[C@H](Cc1ccc(O)cc1)C(=O)N[C@@]1(C)CCCCCCC=CCCC[C@](C)(C(=O)N[C@H](C)C(N)=O)NC(=O)[C@@H](CC(C)C)NC(=O)[C@@H](CC(C)C)NC(=O)[C@@H](CCCCN)NC(=O)[C@@H](CCC(=O)O)NC(=O)[C@@H](Cc2ccc(C(F)(F)F)cc2)NC(=O)[C@@H](CC(N)=O)NC1=O)[C@H](C)O` [SP757, Ac-tawy$s8nf4CF3ekll$r5a-NH2] (Ac-[dT][dA][dW][dY][S8][dN][dPhe(4-CF3)][dE][dK][dL][dL][R5][dA]-NH2; staple 5-12), in the series with SJSA-1 cells (72 hr (Table 1f)), a half-maximal effect (EC50) was put at 1500 nM.
Same read-out and setting: as for `CC(=O)N[C@@H](C(=O)N[C@H](C)C(=O)N[C@H](Cc1c[nH]c2ccccc12)C(=O)N[C@H](Cc1ccc(O)cc1)C(=O)N[C@H](C)C(=O)N[C@H](CC(N)=O)C(=O)N[C@H](Cc1ccccc1)C(=O)N[C@H](CCC(=O)O)C(=O)N[C@H](CCCCN)C(=O)N[C@H](CC(C)C)C(=O)N[C@H](CC(C)C)C(=O)N[C@H](CCCNC(=N)N)C(N)=O)[C@H](C)O` [SP778, Ac-tawyanfekllr-NH2, reference compound] (Ac-[dT][dA][dW][dY][dA][dN][dF][dE][dK][dL][dL][dR]-NH2), the figure is greater than 30000 nM.
Compound `CCCC[C@H](NC(C)=O)C(=O)N[C@@H](CC(=O)O)C(=O)N[C@H](C(=O)N[C@@H](CC(N)=O)C(=O)N[C@@]1(C)CCCC=CCCC[C@@](C)(C(=O)N[C@@H](CC(C)C)C(=O)N[C@@H](C)C(=O)N[C@H](C(=O)NC(C)(C)C(=O)N[C@@H](C)C(=O)N[C@@H](CCC(N)=O)C(N)=O)C(C)C)NC(=O)[C@H](CC(C)C)NC(=O)[C@H](CC(C)C)NC(=O)[C@H]([C@@H](C)O)NC1=O)C(C)C` [SP786] (Ac-[Nle]DVN[S5]TLL[S5]LAV[Aib]AQ-NH2; staple 5-9; C-terminus assumed) had an EC50 in series [2] of 23000 nM.
Same read-out and setting: as for `CCCC[C@H](NC(C)=O)C(=O)N[C@@H](CC(=O)O)C(=O)N[C@H](C(=O)N[C@@H](CC(N)=O)C(=O)N[C@]1(C)CCCCCCC=CCCC[C@@](C)(C(=O)N[C@@H](C)C(=O)N[C@@H](C)C(=O)N[C@@H](CCC(N)=O)C(N)=O)NC(=O)[C@H](C)NC(=O)[C@H](CC(C)C)NC(=O)[C@H](Cc2ccccc2)NC(=O)[C@H](CC(C)C)NC(=O)[C@H](CC(C)C)NC(=O)[C@H]([C@@H](C)O)NC1=O)C(C)C` [SP798] (Ac-[Nle]DVN[R8]TLLFLA[S5]AAQ-NH2; staple 5-12), the figure is 4500 nM.
Consider `CC[C@H](C)[C@H](NC(C)=O)C(=O)N[C@@H](Cc1c[nH]c2ccccc12)C(=O)N[C@H](C(=O)N[C@@H](C)C(=O)N[C@@H](CCC(N)=O)C(=O)N[C@@H](C)C(=O)N[C@@H](CC(C)C)C(=O)N[C@@H](CCCNC(=N)N)C(=O)N[C@]1(C)CCCCCCC=CCCC[C@@](C)(C(=O)N[C@@H](Cc2ccc(O)cc2)C(=O)N[C@@H](Cc2ccc(O)cc2)C(=O)N[C@@H](C)C(=O)N[C@@H](CCCNC(=N)N)C(=O)N[C@@H](CCCNC(=N)N)C(N)=O)NC(=O)[C@H](CC(N)=O)NC(=O)[C@H](Cc2ccccc2)NC(=O)[C@H](CCC(=O)O)NC(=O)[C@H](CC(=O)O)NC(=O)CNC(=O)[C@H]([C@@H](C)CC)NC1=O)[C@@H](C)CC` [SP809] (Ac-IWIAQALR[R8]IGDEFN[S5]YYARR-NH2; staple 9-16), for which the half-maximal inhibitory concentration (IC50) against MCL-1 was 10.6 nM; at BCL-XL, 3.9 nM. The EC50 in the series with Raji Cell was greater than 30000 nM.
For the compound `CC[C@H](C)[C@H](NC(C)=O)C(=O)N[C@@H](Cc1c[nH]c2ccccc12)C(=O)N[C@H](C(=O)N[C@@H](C)C(=O)N[C@@H](CCC(N)=O)C(=O)N[C@@H](CCC(=O)O)C(=O)N[C@@H](CC(C)C)C(=O)N[C@@H](CCCNC(=N)N)C(=O)N[C@]1(C)CCCCCCC=CCCC[C@@](C)(C(=O)N[C@@H](Cc2ccc(O)cc2)C(=O)N[C@@H](Cc2ccc(O)cc2)C(=O)N[C@@H](C)C(=O)N[C@@H](CCCNC(=N)N)C(=O)N[C@@H](CCCNC(=N)N)C(N)=O)NC(=O)[C@H](CC(N)=O)NC(=O)[C@H](Cc2ccccc2)NC(=O)[C@H](CCC(=O)O)NC(=O)[C@H](CC(=O)O)NC(=O)CNC(=O)[C@H]([C@@H](C)CC)NC1=O)[C@@H](C)CC` [SP810], the half-maximal inhibitory concentration (IC50) on BCL-XL was found to be 9.2 nM. For the same compound, the EC50 in the series with Raji Cell was greater than 30000 nM.
With `CC[C@H](C)[C@H](NC(C)=O)C(=O)N[C@@H](Cc1c[nH]c2ccccc12)C(=O)N[C@H](C(=O)N[C@@H](C)C(=O)N[C@@H](CCC(N)=O)C(=O)N[C@@H](C)C(=O)N[C@@H](CC(C)C)C(=O)N[C@@H](CCCNC(=N)N)C(=O)N[C@]1(C)CCCCCCC=CCCC[C@@](C)(C(=O)N[C@@H](Cc2ccc(O)cc2)C(=O)N[C@@H](Cc2ccc(O)cc2)C(=O)N[C@@H](C)C(N)=O)NC(=O)[C@H](CC(N)=O)NC(=O)[C@H](Cc2ccccc2)NC(=O)[C@H](C)NC(=O)[C@H](CC(=O)O)NC(=O)CNC(=O)[C@H]([C@@H](C)CC)NC1=O)[C@@H](C)CC` [SP815] (Ac-IWIAQALR[R8]IGDAFN[S5]YYA-NH2; staple 9-16), the 50% inhibitory concentration (IC50) stood at 8.4 nM on MCL-1 and 22.4 nM at BCL-XL. Besides, the EC50 with Raji Cell is 6600 nM.
On the same counts, the results for `CC[C@H](C)[C@H](NC(C)=O)C(=O)N[C@@H](Cc1c[nH]c2ccccc12)C(=O)N[C@H](C(=O)N[C@@H](C)C(=O)N[C@@H](CCC(N)=O)C(=O)N[C@@H](C)C(=O)N[C@@H](CC(C)C)C(=O)N[C@@H](CCCNC(=N)N)C(=O)N[C@]1(C)CCCCCCC=CCCC[C@@](C)(C(=O)N[C@@H](Cc2ccc(O)cc2)C(=O)N[C@@H](Cc2ccc(F)cc2)C(=O)N[C@@H](C)C(N)=O)NC(=O)[C@H](CC(N)=O)NC(=O)[C@H](Cc2ccccc2)NC(=O)[C@H](C)NC(=O)[C@H](CC(=O)O)NC(=O)CNC(=O)[C@H](CCC(C)C)NC1=O)[C@@H](C)CC` [SP962] (Ac-IWIAQALR[R8][hLeu]GDAFN[S5]Y[Phe(4-F)]A-NH2; staple 9-16) are 27 nM, 13 nM and 700 nM.
